Earlier results in article PMC4744679 (Drug Testing and Analysis, 2015).
One block for each compound: values may come before it.

Legend:
[1] = murine, single intraperitoneal injection
[2] = for Primary accumulation: inner ear, brain, kidney and liver examined
[3] = mature teratoma
[4] = rats, orally administered, 24 and 48 h after injection
[5] = 0.5–3 h of observation

Structure (SMILES): N.N.[Cl][Pt][Cl] [cisplatin, cis‐dichlorodiammineplatinum (II)]
Main deposition: kidney | Main platinum accumulation [1]: kidneys and, secondly, in liver | Primary accumulation [2]: kidney and liver | Time after administration at which platinum is detected in the tissue [3]: more than 7 years

Main accumulation organs [4]: liver, kidneys and spleen
Structure (SMILES): CC(=O)[O-].CC(=O)[O-].N.NC12CC3CC(CC(C3)C1)C2.[Cl-].[Cl-].[Pt+4] [(OC‐6‐43)‐bis (acetato) (1‐adamantylamine) amminedichloroplatinum (IV)]

Structure (SMILES): N.N.O=C([O-])C1(C(=O)[O-])CCC1.[Pt+2] [carboplatin, cis‐diammine(1,1‐cyclobutanedicarboxylato)platinum (II)]
Main deposition: kidney | Distribution into brain and inner ear [2]: much less distributed into brain and inner ear | Primary accumulation [2]: kidney and liver

Primary accumulation sites [5]: spleen, liver, and kidneys
Structure (SMILES): CC(C)c1cc(C(=O)[O-])c([O-])c(C(C)C)c1.NC1CCCCC1N.[Pt+2] [Saliplatin, cis‐3,5‐diisopropylsalylic cyclohexano‐diaminoplatinum (II)]
